In US6706745B1, “Biphenylamidine derivatives” (Teijin Limited, priority 1997, dated 2004):
Structures can show the parent of a compound that is named as a salt.

Assays:
normal human plasma = assay: Determination of anticoagulation activity (APTT); assay type: biochemical; conditions: concentration corresponding to 2-fold elongation of coagulation time
Experimental: (3) Determination of Anticoagulation Activity (APTT):
To 100 μL of normal human plasma (Ci-Trol®) manufactured by DADE, 100 μL of the specimen was added, and incubated at 37° C. for 1 minute. To this solution, 100 μL of APTT reagent (manufactured by DADE) which was, retained at 37° C. was added, and after incubating at 37° C. for 2 minutes, 100 μL of 25 mM calcium chloride solution was added, and the coagulation time was determined using the coagulation measurement apparatus manufactured by AMELUNG. The coagulation time when physiological salt solution was added instead of the analyte is used as a control, the concentration of the specimen corresponding to the 2-fold elongation of this coagulation time (CT2) is calculated, and this value is used as,the indication of the anticoagulation activity.

human FXa = human FXa (Homo sapiens, UniProt P00742); assay: Determination of inhibiting activity of activated blood coagulation factor X (FXa), chromogenic substrate S-2765; assay type: biochemical; conditions: substrate S-2765, 30 min incubation, A405, read-out: Fxa inhibition activity IC50
Experimental: (1) Determination of Inhibiting Activity of Activated Blood Coagulation Factor X (FXa):
The substance for analysis was dissolved in water or water wherein a suitable concentration of organic solvents (DMSO ethanol or .methanol) had been added, as a specimen. To 70 μL of the specimen serially diluted with water, 90 μL of 100 mM Tris buffer (pH 8.4), 20 μL of 50 mM Tris buffer (pH 8.4) containing 50 mU/mL human FXa, and 2 mM substrate (Daiichi Chemical S-2765) were added and incubated for 30 min., 50 μL of 50% acetic acid was added, and the absorbance (A405) were determined. As a blank, Tris buffer was added instead of FXa while, as a control, water was added instead of the specimen. The 50% inhibition activity (IC50) was determined as the indication of FXa inhibiting activity.

human thrombin = target: T1, human thrombin (Homo sapiens, UniProt P00734); assay: Determination of thrombin inhibiting activity, chromogenic substrate S-2238; assay type: biochemical; conditions: substrate S-2238, 30 min incubation, A405, read-out: Thrombin inhibition activity IC50
T1 construct: 1 U/mL human thrombin
Experimental: (2) Determination of Thrombin Inhibiting Activity:
To 70 μL of the specimen serially diluted with water, 90 μL of 100 mM Tris buffer (pH 8.4), 20 μL of 50 mM Tris buffer (pH 8.4) containing 1 U/mL human thrombin, and 2 mM substrate (Daiichi Chemical S-2238) were added and incubated for 30 min., 50μL of 50% acetic acid was added, and the absorbance (A405) were determined. As, a blank, Tris buffer was added instead of thrombin while as a control, water is added instead of the specimen. The 50% inhibition activity (IC50) was determined as the indication of thrombin inhibiting activity.

[1] = Determination of bioavailability (BA) in mouse; assay type: in vivo; conditions: fasted male ICR mice; oral 10 mg/kg vs intravenous 3 mg/kg; from plasma AUC
Experimental: (5) Determination of Bioavailability (BA):
The substance for analysis was dissolved in distilled water (for oral administration; 10 mg/kg) or physiological salt solution (for intravenous administration; 3 mg/kg) to prepare a solution for administration. This solution was administered to fasted ICR mice (male, 6 weeks aged), the whole blood was extracted from the heart under ether anesthesia at 5 min. (intravenous administration group only), 15 min., 30 min., 1 hr., 2 hr. and 4 hr. after the administration, and the plasma was separated by the centrifugation (3,500 rpm, 30 min., 4° C.) to produce the specimen (n=4). Using the above method for determining FXa inhibiting activity, the calibration curve for the substance for analysis was previously prepared and the concentration of the substance for analysis in the specimen was determined. The lower area of the concentration in plasma—time curve (AUC) was calculated and then the bioavailavility in the mouse (BA) was calculated according to the following formula: [formula]

[2] = target: T2, human acetylcholine esterase (Homo sapiens, UniProt P22303); assay: Determination of acetylcholine esterase (AChE) inhibiting activity; assay type: biochemical; conditions: read-out: AChE inhibition activity IC50
T2 construct: purchased Sigma C-5400
Experimental: (4) Determination of Acetylcholine Esterase (AChE) Inhibiting Activity
The substance for analysis was dissolved in distilled water as specimen. To 50 μL of the specimen serially diluted, 50 μL of enzyme solution, wherein human acetylcholine esterase (manufactured by Sigma, C-5400) had been dissolved in distilled water at 0.1 U/mL was added. To this solution, 50 μL of the solution which was prepared by dissolving 5,5′-dithiobis (manufactured by Nacarai Tesque, 141-01) in phosphate buffer (0.1M NaH2PO4—Na2HPO4, pH 7.0) at 0.5 mM is,added and mixed, and reacted with 50 μL of the solution wherein acetylthiocholine iodide (Wako Company, 017-09313) had been dissolved in phosphate buffer at 3 mM, at room temperature. As a control distilled water was added instead of the substance for analysis and the absorbance (A450) was determined over time. As a blank, phosphate buffer was added instead of the enzyme solution and the 50% inhibition activity (IC50),was determined.

T2 sequence (P22303 32-617 isoform P22303-2 limits assumed): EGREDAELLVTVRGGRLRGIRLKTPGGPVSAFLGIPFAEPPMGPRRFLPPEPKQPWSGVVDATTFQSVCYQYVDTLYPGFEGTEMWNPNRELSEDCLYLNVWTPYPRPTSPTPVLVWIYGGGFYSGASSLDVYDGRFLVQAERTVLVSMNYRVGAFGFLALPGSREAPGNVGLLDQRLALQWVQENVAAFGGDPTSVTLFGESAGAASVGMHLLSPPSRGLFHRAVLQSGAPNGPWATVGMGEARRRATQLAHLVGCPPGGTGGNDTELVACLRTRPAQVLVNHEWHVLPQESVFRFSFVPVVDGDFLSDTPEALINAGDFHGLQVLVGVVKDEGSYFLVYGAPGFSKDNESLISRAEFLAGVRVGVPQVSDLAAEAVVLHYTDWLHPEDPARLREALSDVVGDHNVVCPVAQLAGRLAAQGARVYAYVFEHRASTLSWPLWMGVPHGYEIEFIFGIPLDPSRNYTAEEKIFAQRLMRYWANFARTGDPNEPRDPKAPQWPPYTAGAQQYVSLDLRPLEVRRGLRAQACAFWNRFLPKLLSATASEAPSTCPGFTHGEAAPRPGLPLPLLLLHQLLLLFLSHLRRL
human FXa, sequence (P00742 235-488 limits assumed): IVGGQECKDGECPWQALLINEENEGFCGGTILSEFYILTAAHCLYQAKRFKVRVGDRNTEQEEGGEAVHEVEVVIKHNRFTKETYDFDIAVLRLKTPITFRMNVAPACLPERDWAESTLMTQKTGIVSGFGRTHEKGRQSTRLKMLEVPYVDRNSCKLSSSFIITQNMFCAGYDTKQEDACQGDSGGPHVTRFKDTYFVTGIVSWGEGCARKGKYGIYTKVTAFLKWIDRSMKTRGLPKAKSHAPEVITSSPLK
human FXa, sequence (P00742 41-179 partner limits assumed): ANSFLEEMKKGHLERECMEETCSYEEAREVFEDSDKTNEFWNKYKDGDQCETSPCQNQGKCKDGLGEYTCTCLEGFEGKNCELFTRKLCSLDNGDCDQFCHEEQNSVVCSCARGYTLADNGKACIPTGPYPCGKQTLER

CC(=N)N1CCC(COCc2cc(C(=O)O)cc(-c3cccc(C(=N)N)c3)c2)CC1 [Example 61, 3-(3-Amidinophenyl)-5-[(1-acetoimidoyl-4-piperidinyl)methoxymethyl]benzoic Acid.hydrochloride]
APTT CT2 (normal human plasma): 0.76 µM | IC50 (human FXa): 63 nM | IC50 (human thrombin): > 1 mM | Mouse BA [1]: 10% | IC50 [2]: 49 µM

CC(=N)N1CCC(CNCc2cc(C(=O)O)cc(-c3cccc(C(=N)N)c3)c2)CC1 [Example 70]
APTT CT2 (normal human plasma): 2.0 µM | IC50 (human FXa): 190 nM | IC50 (human thrombin): > 1 mM | Mouse BA [1]: 11% | IC50 [2]: 140 µM

N=C(N)c1cccc(-c2cc(CNCC3CCN(CCO)CC3)cc(C(=O)O)c2)c1 [Example 72]
APTT CT2 (normal human plasma): 11 µM | IC50 (human FXa): 1200 nM | IC50 (human thrombin): > 1 mM | Mouse BA [1]: 13% | IC50 [2]: > 250 µM

N=C(N)c1cccc(-c2cc(CNCC3CCCCC3)cc(C(=O)O)c2)c1 [Example 73]
APTT CT2 (normal human plasma): 13 µM | IC50 (human FXa): 1700 nM | IC50 (human thrombin): > 1 mM | IC50 [2]: > 250 µM

CC(=N)N1CCC(CN(C)Cc2cc(C(=O)O)cc(-c3cccc(C(=N)N)c3)c2)CC1 [Example 74]
APTT CT2 (normal human plasma): 5.4 µM | IC50 (human FXa): 590 nM | IC50 (human thrombin): > 1 mM | Mouse BA [1]: 13% | IC50 [2]: 150 µM

CC(=N)N1CCC(CN(CCO)Cc2cc(C(=O)O)cc(-c3cccc(C(=N)N)c3)c2)CC1 [Example 81]
APTT CT2 (normal human plasma): 2.8 µM | IC50 (human FXa): 210 nM | IC50 (human thrombin): 0.82 mM | Mouse BA [1]: 7% | IC50 [2]: 130 µM

CC(=N)N1CCC(COCc2cc(CCC(=O)O)cc(-c3cccc(C(=N)N)c3)c2)CC1 [Example 82]
APTT CT2 (normal human plasma): 1.9 µM | IC50 (human FXa): 130 nM | IC50 (human thrombin): > 1 mM | Mouse BA [1]: 11% | IC50 [2]: 170 µM
